Assay results taken from PMC3382171 (PLoS ONE, 2012).

What was measured:
Assay in all cases: biochemical
Design in all cases: Invitrogen SelectScreen kinase panel, percent inhibition at 1 uM, ATP at Km
Details in all cases: read-out: Invitrogen KSS %Inh at 1 µM
PLK1 = PLK1 (Homo sapiens, UniProt P53350)
Experimental: (§1) The METi and RAFi were screened against kinase panels (SelectScreen, Invitrogen; University of Dundee, Division of Signal Transduction Therapy, UK; Upstate Biotechnology/Millipore, Billerica, MA). In these selectivity assays the concentration of ATP was set to the Km value of ATP for each kinase tested to allow for a relative potency comparison between the various kinases. The compounds were tested at 1 µM final concentration. […] Supplementary file pone.0039653.s002.pdf: Figure S2 Kinase Selectivity Screen of RAFi. (A) Kinase selectivity screen (KSS) performed at University of Dundee (Division of Signal Transduction Therapy). Values in % inhibition of phosphorylation given 1 µM of RAFi compared to control. (B) KSS performed at Invitrogen (Selectscreen Service) compared to control. Values in % inhibition of phosphorylation given 1 µM of RAFi. (C) Cell based dose response kinase inhibition of indicated kinases by RAFi. (PDF) Click here for additional data file.

KIT = KIT (Homo sapiens, UniProt P10721)
Experimental: as §1

PRKG1 = PRKG1 (Homo sapiens, UniProt Q13976)
Experimental: as §1

GSK3B (GSK3 beta) = GSK3B (GSK3 beta) (Homo sapiens, UniProt P49841)
Experimental: as §1

MAPK10 (JNK3) = MAPK10 (JNK3) (Homo sapiens, UniProt P53779)
Experimental: as §1

CSF1R (FMS) = CSF1R (FMS) (Homo sapiens, UniProt P07333)
Sequence of CSF1R (FMS) (P07333 whole entry): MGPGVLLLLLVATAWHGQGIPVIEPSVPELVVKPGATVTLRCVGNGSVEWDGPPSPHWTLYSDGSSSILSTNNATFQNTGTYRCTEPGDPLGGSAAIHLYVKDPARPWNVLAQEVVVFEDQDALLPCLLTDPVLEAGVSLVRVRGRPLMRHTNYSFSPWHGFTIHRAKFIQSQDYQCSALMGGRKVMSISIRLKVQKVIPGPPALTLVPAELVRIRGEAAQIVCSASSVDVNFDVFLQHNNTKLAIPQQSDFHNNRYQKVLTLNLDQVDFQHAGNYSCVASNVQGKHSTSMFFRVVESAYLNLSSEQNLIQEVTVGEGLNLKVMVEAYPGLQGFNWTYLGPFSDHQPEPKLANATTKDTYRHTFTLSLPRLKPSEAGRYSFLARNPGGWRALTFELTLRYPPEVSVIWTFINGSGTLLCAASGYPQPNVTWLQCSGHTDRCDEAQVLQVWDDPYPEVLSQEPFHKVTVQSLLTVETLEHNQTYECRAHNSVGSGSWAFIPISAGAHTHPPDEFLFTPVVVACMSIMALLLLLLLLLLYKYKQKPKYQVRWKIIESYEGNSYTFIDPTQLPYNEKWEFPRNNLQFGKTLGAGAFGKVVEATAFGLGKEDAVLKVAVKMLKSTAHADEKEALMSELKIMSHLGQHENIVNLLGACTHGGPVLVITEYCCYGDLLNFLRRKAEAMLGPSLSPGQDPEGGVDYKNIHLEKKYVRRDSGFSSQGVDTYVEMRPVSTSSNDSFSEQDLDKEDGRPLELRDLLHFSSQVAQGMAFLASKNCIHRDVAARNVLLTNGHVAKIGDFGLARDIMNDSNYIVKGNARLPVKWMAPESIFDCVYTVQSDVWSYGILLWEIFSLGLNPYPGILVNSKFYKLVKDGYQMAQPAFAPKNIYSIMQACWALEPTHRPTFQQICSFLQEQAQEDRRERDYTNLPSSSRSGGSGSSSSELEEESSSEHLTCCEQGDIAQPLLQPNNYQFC
Experimental: as §1

PRKCQ (PKC theta) = PRKCQ (PKC theta) (Homo sapiens, UniProt Q04759)
Experimental: as §1

EPHA4 = EPHA4 (Homo sapiens, UniProt P54764)
Sequence of EPHA4 (P54764 whole entry): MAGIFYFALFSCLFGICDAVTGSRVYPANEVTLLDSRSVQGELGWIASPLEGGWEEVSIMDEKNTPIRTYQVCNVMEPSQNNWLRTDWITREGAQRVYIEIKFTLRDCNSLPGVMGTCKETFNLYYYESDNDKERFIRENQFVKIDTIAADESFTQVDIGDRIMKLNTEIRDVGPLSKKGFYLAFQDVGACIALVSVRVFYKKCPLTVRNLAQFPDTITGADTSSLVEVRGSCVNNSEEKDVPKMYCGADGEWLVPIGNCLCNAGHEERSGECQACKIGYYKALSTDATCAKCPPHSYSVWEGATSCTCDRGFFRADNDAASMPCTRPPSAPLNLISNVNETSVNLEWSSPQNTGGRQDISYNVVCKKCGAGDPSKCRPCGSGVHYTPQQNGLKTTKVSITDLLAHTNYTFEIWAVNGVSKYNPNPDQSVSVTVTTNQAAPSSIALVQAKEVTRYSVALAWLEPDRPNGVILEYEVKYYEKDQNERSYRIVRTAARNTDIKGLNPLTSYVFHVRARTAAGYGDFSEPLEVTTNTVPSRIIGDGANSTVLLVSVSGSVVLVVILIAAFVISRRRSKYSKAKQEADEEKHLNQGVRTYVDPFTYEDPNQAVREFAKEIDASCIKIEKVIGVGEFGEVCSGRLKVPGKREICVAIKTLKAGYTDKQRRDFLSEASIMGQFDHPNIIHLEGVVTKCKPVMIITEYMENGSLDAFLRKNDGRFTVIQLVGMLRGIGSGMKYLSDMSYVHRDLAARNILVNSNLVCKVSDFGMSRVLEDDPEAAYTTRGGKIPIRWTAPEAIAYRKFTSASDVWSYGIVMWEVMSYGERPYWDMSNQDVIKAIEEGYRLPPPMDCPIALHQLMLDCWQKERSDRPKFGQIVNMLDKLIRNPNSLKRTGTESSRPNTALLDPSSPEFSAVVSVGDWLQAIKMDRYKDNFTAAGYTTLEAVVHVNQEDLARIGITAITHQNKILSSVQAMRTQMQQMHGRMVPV
Experimental: as §1

ALK = ALK (Homo sapiens, UniProt Q9UM73)
Experimental: as §1

ITK = ITK (Homo sapiens, UniProt Q08881)
Experimental: as §1

[1] = target: PIK3CA/PIK3R1 (p110 alpha/p85 alpha) (Homo sapiens, UniProt P42336)
Experimental: as §1

FGFR1 = FGFR1 (Homo sapiens, UniProt P11362)
Sequence of FGFR1 (P11362 whole entry): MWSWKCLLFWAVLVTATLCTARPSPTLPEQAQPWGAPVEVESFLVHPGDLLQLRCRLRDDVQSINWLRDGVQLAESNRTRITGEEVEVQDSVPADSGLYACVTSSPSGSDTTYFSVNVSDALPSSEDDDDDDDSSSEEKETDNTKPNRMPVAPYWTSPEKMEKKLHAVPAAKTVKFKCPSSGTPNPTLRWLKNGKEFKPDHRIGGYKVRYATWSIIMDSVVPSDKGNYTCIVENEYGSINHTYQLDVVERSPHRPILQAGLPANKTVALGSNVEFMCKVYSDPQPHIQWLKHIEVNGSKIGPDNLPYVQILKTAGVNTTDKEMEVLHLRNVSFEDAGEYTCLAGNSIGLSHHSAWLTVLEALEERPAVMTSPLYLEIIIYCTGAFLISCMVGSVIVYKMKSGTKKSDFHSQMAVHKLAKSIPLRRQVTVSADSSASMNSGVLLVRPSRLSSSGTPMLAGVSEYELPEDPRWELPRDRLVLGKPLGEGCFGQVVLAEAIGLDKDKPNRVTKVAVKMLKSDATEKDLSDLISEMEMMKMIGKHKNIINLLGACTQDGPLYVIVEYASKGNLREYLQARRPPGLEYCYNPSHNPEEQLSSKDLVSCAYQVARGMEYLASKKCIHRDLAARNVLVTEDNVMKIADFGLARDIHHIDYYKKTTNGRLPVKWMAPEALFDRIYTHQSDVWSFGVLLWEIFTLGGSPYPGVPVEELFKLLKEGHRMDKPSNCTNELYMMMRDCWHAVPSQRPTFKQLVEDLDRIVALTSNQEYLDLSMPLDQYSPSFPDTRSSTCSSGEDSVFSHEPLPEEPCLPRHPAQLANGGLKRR
Experimental: as §1

IRAK4 = IRAK4 (Homo sapiens, UniProt Q9NWZ3)
Sequence of IRAK4 (Q9NWZ3 whole entry): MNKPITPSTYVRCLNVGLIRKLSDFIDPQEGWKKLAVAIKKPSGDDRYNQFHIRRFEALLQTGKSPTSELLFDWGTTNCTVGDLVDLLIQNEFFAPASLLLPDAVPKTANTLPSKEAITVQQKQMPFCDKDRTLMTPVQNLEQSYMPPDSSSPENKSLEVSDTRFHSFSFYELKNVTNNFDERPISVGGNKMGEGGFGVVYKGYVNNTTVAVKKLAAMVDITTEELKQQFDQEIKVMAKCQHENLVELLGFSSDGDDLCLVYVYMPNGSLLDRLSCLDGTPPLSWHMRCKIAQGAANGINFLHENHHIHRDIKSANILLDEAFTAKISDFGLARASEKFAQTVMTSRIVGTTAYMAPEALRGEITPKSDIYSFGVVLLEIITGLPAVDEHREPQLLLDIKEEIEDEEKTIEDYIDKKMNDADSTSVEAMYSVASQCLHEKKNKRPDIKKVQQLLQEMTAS
Experimental: as §1

MST1R (RON) = MST1R (RON) (Homo sapiens, UniProt Q04912)
Experimental: as §1

RAF1 (cRAF) Y340D Y341D = RAF1 (cRAF) Y340D Y341D (Homo sapiens, UniProt P04049, Y340D/Y341D)
Experimental: as §1

GRK4 = GRK4 (Homo sapiens, UniProt P32298)
Experimental: as §1

FER = FER (Homo sapiens, UniProt P16591)
Experimental: as §1

FLT1 (VEGFR1) = FLT1 (VEGFR1) (Homo sapiens, UniProt P17948)
Sequence of FLT1 (VEGFR1) (P17948 whole entry): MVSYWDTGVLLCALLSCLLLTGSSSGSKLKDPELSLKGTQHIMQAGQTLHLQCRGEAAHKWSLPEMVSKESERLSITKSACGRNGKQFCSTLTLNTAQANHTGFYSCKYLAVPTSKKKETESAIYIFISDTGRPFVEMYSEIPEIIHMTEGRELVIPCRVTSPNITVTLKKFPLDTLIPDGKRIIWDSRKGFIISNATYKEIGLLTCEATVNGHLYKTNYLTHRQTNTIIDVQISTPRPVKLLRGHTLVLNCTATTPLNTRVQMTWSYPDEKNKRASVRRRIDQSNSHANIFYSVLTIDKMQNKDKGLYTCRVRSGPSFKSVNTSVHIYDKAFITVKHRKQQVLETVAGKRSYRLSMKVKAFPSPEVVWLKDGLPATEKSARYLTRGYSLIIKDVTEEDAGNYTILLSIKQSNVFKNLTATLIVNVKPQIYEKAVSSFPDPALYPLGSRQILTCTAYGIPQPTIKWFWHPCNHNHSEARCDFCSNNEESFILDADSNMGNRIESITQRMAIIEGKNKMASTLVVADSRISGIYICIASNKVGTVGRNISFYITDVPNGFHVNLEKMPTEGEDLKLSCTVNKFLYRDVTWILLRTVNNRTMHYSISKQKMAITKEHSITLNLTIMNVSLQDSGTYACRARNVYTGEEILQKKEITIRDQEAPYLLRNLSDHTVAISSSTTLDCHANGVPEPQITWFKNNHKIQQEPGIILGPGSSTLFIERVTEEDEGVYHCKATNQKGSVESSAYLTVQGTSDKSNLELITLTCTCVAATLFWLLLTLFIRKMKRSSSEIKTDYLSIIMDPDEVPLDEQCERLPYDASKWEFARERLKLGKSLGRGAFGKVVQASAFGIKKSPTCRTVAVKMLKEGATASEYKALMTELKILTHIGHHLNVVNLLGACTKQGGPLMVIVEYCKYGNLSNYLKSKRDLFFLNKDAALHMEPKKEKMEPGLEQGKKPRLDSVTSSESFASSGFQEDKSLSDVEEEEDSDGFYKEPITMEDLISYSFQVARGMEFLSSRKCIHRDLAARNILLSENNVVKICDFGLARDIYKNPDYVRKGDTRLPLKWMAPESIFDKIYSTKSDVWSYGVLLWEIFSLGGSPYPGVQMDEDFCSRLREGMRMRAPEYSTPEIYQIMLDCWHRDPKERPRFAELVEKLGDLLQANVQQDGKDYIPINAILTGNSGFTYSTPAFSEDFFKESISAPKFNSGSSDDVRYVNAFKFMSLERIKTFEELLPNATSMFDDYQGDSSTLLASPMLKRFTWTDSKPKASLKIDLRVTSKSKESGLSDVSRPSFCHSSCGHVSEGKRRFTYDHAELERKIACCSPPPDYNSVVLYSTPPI
Experimental: as §1

RET = RET (Homo sapiens, UniProt P07949)
Experimental: as §1

HCK = HCK (Homo sapiens, UniProt P08631)
Sequence of HCK (P08631 whole entry): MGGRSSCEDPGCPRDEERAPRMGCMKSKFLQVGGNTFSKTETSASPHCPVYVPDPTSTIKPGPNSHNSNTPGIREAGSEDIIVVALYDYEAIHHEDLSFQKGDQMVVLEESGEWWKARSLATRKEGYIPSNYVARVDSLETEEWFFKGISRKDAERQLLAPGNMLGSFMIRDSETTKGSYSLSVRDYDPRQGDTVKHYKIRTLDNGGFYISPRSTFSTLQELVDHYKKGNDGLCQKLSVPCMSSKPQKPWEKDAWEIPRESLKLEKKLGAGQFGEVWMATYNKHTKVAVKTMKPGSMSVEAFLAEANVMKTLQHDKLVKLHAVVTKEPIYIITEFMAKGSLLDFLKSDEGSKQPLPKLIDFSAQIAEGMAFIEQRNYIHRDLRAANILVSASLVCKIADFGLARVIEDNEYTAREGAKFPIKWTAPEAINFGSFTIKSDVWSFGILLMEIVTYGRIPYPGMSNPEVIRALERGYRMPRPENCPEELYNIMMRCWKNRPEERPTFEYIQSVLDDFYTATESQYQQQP
Experimental: as §1

PDGFRB (PDGFR beta) = PDGFRB (PDGFR beta) (Homo sapiens, UniProt P09619)
Experimental: as §1

TBK1 = TBK1 (Homo sapiens, UniProt Q9UHD2)
Experimental: as §1

inhibition at 1 µM (PLK1): 27%
inhibition at 1 µM (KIT): 36%
inhibition at 1 µM (PRKG1): -3%
inhibition at 1 µM (GSK3B (GSK3 beta)): 23%
inhibition at 1 µM (MAPK10 (JNK3)): 81%
inhibition at 1 µM (CSF1R (FMS)): 33%
inhibition at 1 µM (PRKCQ (PKC theta)): -2%
inhibition at 1 µM (EPHA4): 1%
inhibition at 1 µM (ALK): 23%
inhibition at 1 µM (ITK): 0%
inhibition at 1 µM [1]: 35%
inhibition at 1 µM (FGFR1): 1%
inhibition at 1 µM (IRAK4): -16%
inhibition at 1 µM (MST1R (RON)): 2%
inhibition at 1 µM (RAF1 (cRAF) Y340D Y341D): 95%
inhibition at 1 µM (GRK4): -18%
inhibition at 1 µM (FER): -2%
inhibition at 1 µM (FLT1 (VEGFR1)): 2%
inhibition at 1 µM (RET): 12%
inhibition at 1 µM (HCK): 5%
inhibition at 1 µM (PDGFRB (PDGFR beta)): 2%
inhibition at 1 µM (TBK1): -7%
Compound: N#CCCNc1nccc(-c2cn(CC(F)F)nc2-c2cnc3[nH]ccc3c2)n1 [RAFi, PF-04880594]
